Experimental data as given in patent US6331565A, “Dicaffeoylquinic acid for treating hepatitis B and the diseases associated with retrovirus, and the new caffeoylquinic acid derivatives” (Institute of Radiation Medicine Academy of Military Medical …, priority 1996, dated 2001).
Like-named read-outs stand apart in the source and are kept apart here.

Tests used:
HBeAg = test: microbe, parasite or virus in culture; assay type: cell-based, HBV; settings: ACV, concentration not given
Experimental: (§1) The cultures were passenged by trypsinization every 4 days.
(§2) HBsAg and HBeAg in the culture medium were determined according to the protocol respectively. The culture medium (200 μl) was absorbed on beads containing antibody to HBsAg/HBeAg in the presence of the conjugate. After overnight incubation, the beads were washed 6 times with […] PBS containing 0.05% Tween-80 and incubated with 200 μl of [^125 I] anti-HBs(Hbe) overnight. The beads were washed 6 times as above. The amounts HBsAg/HBeAg as measure of cpm of [^125 I] labeled immunocomplex was counted on γ-counter.

HBsAg = test: microbe, parasite or virus in culture; assay type: cell-based, HBV; settings: ACV, concentration not given
Experimental: as §1, §2

DHBV = test: anti-DHBV test in ducks (serum DHBV DNA dot blot); assay type: in vivo, DHBV in Peking (Beijing) ducks; settings: for DHBV DNA, grayness of the dot: 50 mg/kg, X ± SD, n = 7
Experimental: One-day-old ducklings were infected with a 200 μl intravenous injection of DHBV-positive serum containing 10^11 viral genome equivalents per milliliter. Treatment began when ducklings were 7 days old. A total 89 seven-day-old viraemic ducks were distributed at random into five groups. […] Post-treatment follow-up was carried over a period of 5 days. Blood samples were obtained repectively from the leg vein of all ducks and stored at -70° C. after serum separation, prior to treatment, weekly during the treatment, and for 5 days after cessation of treatment. They were screened for presence of DHBV DNA by dot blot hybridization.
DHBV DNA in serum was analyzed by molecular hybridization using full length DHBV DNA clones in PB325. The DHBV DNA insert was purified by agarose gel electrophoresis after digestion with EcoRI. The DHBV DNA was radiolabeled with α^32 P-dCTP random oligopriming with Klenow fragment. Dot blot hybridization was carried out by the method of Scotto et al. Briefly, an aliquot (200 μl) serum was spotted onto a nylon membrane (Hybond-N, Amersham International, England) in dot blot manifold and denatured with 0.5 M NaOH--NaCl at room temperature for 30 min. Each spotted sample was neutralized in 1M Tris.HCl-1.5M NaCl (pH8.0). The DNA on the membrane was fixed by heating at 80° C. for 2 h, and prehybridization at 37° C. overnight in 50% formamide, 5×Denhardt's, 6×SSC,[…], 0.5% SDS and 10 mg/ml of calf thymus DNA. Hybridization was initiated by adding DHBV [^32 P] DNA probes at 10^6 cpm/ml at the same prehybridization conditions overnight. The membrane was washed in 3×SSC-0.1% SDS at room temperature, 42° C. and 65° C. for 10 min respectively. After hybridization the membranes were air-dried and exposed for periods of up to 14 days at -70° C. with Kodak film with an enhancer screen. The amount of viral DNA were assayed by both densitometry and image analysis of autoradiographic membranes.

[1] = system: lymphocyte proliferation induced by Con A; settings: 50 mg/kg; for RPI: Normal = 100
Experimental: mice. Five-wk-old female C57BL/6 mice were used throughout the experiments. All mice were housed in sterile cages in a room supplied with filtrated air. They were given pelleted food and chlorinated water ad libitum.
Infection with LP-BM5 MuLV. Cell-free supernatants of LP-BM5 MULV were prepared by cocultivating G6 SC-1 clones with normal SC-1 cells for 5 days. Mice were inoculated intraperitoneally with 150 μl of stock solution containing 10^3,4×C plaque-forming units and 10^2,3 Mink-cell focks-forming units per […].
Then, the spleens were collected. Cell suspensions were prepared by repeated passage of whole spleen through a pipette, the capsule and debris were allowed to settle, and the supernatants containing cells were collected and washed twice in PBS. […] Incubation continued for 16 hr, then cells were collected on filter that was determined by a scintillation counter.

HBV DNA polymerase = target: T1, HBV DNA polymerase (Hepatitis B virus genotype D subtype ayw, UniProt P03156); test: HBV DNA polymerase assay; assay type: biochemical
T1 construct: HBV DNA polymerase in viral particles; host or cells: viral particles
Experimental: Assay was performed as described by Hantz (Antiviral Res 4(1984) 187-199) with minor modification. The Reaction mixture consisted of HBV DNA polymerase in viral particles in 200 mmol.l^-1 of Tris-HCl pH 7.6, 200 mmol.l^-1 of NH4 Cl. 50 mmol.l^-1 of MgCl2, 10 mmol.l^-1 of 2-mercaptoethanol, 2% Nonidet P-40 and 300 μmol.l^-1 concentrations of deoxynucleotide triphosphates except for [^3 H]dTTP, which was included in the assay at 20 μci.ml^-1. […] The mixtures were incubated at 37° C. for 4 h prior to spotting on Whatman No.3 filter paper which was washed 4 times with cold 5% trichloroacitic acid, then with ethanol. The HBV DNA polymerase activity as measure of the incorperation of the radionucleotide into the viral DNA was counted in a Recbeta (LKB)scintilation counter.

T1 sequence (P03156 whole entry): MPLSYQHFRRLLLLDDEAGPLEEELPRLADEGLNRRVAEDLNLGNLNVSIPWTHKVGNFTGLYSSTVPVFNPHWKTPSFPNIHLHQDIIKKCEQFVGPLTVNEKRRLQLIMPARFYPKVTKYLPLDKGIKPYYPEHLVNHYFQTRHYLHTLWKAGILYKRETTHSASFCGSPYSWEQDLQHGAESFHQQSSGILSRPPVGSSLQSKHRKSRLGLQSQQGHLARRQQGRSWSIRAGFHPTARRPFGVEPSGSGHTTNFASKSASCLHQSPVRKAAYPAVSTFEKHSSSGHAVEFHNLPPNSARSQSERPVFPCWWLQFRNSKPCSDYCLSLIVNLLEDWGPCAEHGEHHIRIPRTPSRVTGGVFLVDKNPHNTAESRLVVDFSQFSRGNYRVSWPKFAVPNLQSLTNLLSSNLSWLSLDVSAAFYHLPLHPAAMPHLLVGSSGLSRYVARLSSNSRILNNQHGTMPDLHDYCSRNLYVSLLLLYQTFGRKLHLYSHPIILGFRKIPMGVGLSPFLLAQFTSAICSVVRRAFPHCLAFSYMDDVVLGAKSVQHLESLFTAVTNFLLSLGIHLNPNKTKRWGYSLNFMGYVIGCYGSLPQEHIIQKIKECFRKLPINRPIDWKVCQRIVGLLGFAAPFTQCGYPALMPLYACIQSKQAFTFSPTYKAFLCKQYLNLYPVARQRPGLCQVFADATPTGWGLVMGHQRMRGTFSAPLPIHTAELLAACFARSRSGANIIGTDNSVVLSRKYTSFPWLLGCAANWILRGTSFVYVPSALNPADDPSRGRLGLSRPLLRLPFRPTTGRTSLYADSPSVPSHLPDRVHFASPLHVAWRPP

Compound: Nc1nc2c(ncn2COCCO)c(=O)[nH]1 [ACV, acyclovir, reference compound]
- HBeAg Inhibit rate (%) (HBeAg; day 4): 26.22 ± 1.17%
- HBeAg cpm (HBeAg; day 4): 3910.9 ± 57.6 cpm
- HBeAg Inhibit rate (%) (HBeAg; day 8): 26.75 ± 1.21%
- HBeAg cpm (HBeAg; day 8): 6101.9 ± 96.17 cpm
- HBeAg Inhibit rate (%) (HBeAg; day 12): 3.71 ± 1.36%
- HBeAg cpm (HBeAg; day 12): 8194.1 ± 111.5 cpm
- HBsAg Inhibit rate (%) (HBsAg; day 4): 48.20%
- HBsAg cpm (HBsAg; day 4): 710.1 ± 65.7 cpm
- HBsAg Inhibit rate (%) (HBsAg; day 8): 29.54 ± 5.15%
- HBsAg cpm (HBsAg; day 8): 870.1 ± 51.1 cpm
- HBsAg Inhibit rate (%) (HBsAg; day 12): 23.22%
- HBsAg cpm (HBsAg; day 12): 622.5 ± 58.8 cpm
- DHBV DNA, grayness of the dot (DHBV; P5 (day 5 after withdrawal)): 9.0 ± 8.6 K Grayness
- DHBV DNA, grayness of the dot (DHBV; day 0 (before treatment), oral): 6.3 ± 4.2 K Grayness
- DHBV DNA, grayness of the dot (DHBV; day 7, oral): 0.1 ± 0.3 K Grayness
- DHBV DNA, grayness of the dot (DHBV; day 14, oral): 0.0 ± 0 K Grayness
- viraemia returned to a level higher than that of pretreatment by (DHBV; day 5 after cessation of treatment): 43%
- DHBV DNA from the sera (DHBV; during the 14 days of therapy, all 7 treated birds): substantial decrease of DHBV DNA from the sera

Compound: Cc1cn([C@H]2C[C@H](N=[N+]=[N-])[C@@H](CO)O2)c(=O)[nH]c1=O [AZT]
- cpm ([1]; Con A (5 μg/ml)): 53287 ± 2043 cpm
- RPI ([1]; Con A (5 μg/ml)): 95.10
- cpm ([1]; Con A ([…])): 33212 ± 2609 cpm
- RPI ([1]; Con A ([…])): 93.21

Compound: O=C(O)P(=O)(O)O [PFA, reference compound]
- IC50 (HBV DNA polymerase): 184 µM
- inhibitory effect on HBV DNAp (HBV DNA polymerase): dose-dependent inhibitory effect
- cpm (HBV DNA polymerase; 1 μg/ml): 10267 ± 77 cpm
- cpm (HBV DNA polymerase; 10 μg/ml): 5495 ± 218 cpm
- cpm (HBV DNA polymerase; 100 μg/ml): 3065 ± 67 cpm
- cpm (HBV DNA polymerase; 1000 μg/ml): 2377 ± 329 cpm
- inhibition at 1 µg/mL (HBV DNA polymerase; read-out: Inhibitory rate (%)): -5.2 ± 15.3%
- inhibition at 10 µg/mL (HBV DNA polymerase; read-out: Inhibitory rate (%)): 44.4 ± 2.3%
- inhibition at 100 µg/mL (HBV DNA polymerase; read-out: Inhibitory rate (%)): 69.7 ± 0.7%
- inhibition at 1000 µg/mL (HBV DNA polymerase; read-out: Inhibitory rate (%)): 76.8 ± 3.4%
